Source: the NIST ThermoML archive (doi:10.1016/j.jct.2008.12.018)
± gives the expanded uncertainty stated by the source.

Experiment: activity coefficient (dimensionless); of the first substance listed, at infinite dilution; xn = mol fraction of the nth substance listed
Conditions: Liquid, Chromatography, x1 = 0

- activity coefficient (328.15 K): 0.316 ± 0.035
- activity coefficient (338.15 K): 0.316 ± 0.035
- activity coefficient (348.15 K): 0.32 ± 0.035
- activity coefficient (358.15 K): 0.323 ± 0.035
- activity coefficient (368.15 K): 0.325 ± 0.035
SMILES: O [water] + CCCCn1cc[n+](C)c1.N#C[S-]
